We go through three compounds from US20260265267A1, “NOVEL COMPOUNDS WITH MTORC2-INHIBITORY ACTIVITY AND USES THEREOF” (Aliad Biopharma, priority 2023, published 2026).

In assay [1] the test system is amyloid plaques in the brain of 5×FAD mouse. The experiment in a line: Amyloid plaque removal in the brain of 5×FAD mice (6E10 antibody, thioflavin-S staining). It is filed as in vivo. The conditions noted are these: 5 mg/kg, 14 days. The method, then: In order to evaluate the efficacy of HN2210, HN2213, and HN2313 on Alzheimer's disease-related symptoms, specifically regarding 1) memory and cognitive impairment, 2) amyloid plaques, 3) neurofibrillary tangles (NFTs), and 4) brain inflammation, an in vivo efficacy assessment of HN2210, HN2213 and HN2313 was conducted using 5×FAD Alzheimer's disease model mice. The 5×FAD mice were purchased from Jackson Lab, USA (Cat #034840-JAX) and crossed once with C57bl6 mice to produce F1 heterozygous offspring (Het). The compound was administered via intraperitoneal injection to 6-month-old 5×FAD Het mice, followed by behavioral testing. The normal control mice, which were littermates of the 5×FAD Het mice, were aged to 6 months and received DMSO injection at the same volume.
In order to assess the amyloid plaque removal effect of HN2210, HN2213, and HN2313 compounds in the brains of Alzheimer's disease model mice, the following test was conducted using 5×FAD-DMSO mice without compound treatment, 5×FAD mice treated with HN2210, HN2213, or HN2313 compounds, and normal mice as controls.
Specifically, brain slices sectioned in the coronal plane were selected for every fifth slice from the anterior to the posterior parts of the brain and stained with the 6E10 antibody or thioflavin-S. The 6E10 antibody stains both […] and amyloid plaques, while thioflavin-S specifically stains amyloid plaques. DNA was co-stained with DAPI. The dentate gyrus (DG) region of the hippocampus, where amyloid plaques tend to accumulate heavily, was examined using a confocal scanning microscope, and the images are shown in FIGS. 9a to 9c.

The target in a further assay is T1, mTORC2 (Homo sapiens, UniProt P42345).
T1 construct: the following experiments were conducted in HeLa cells; endogenous in cells; host or cells: HeLa
The experiment in a line: mTORC2 inhibitory activity in HeLa cells (Akt Ser473 phosphorylation, Western blot). Format: cell-based. Conditions: for selective inhibition of mTORC2: 40 μM, versus mTORC1; for selective inhibition of mTORC2 / remaining activity at 40 µM: 9 hours; for remaining activity at 40 µM: read-out: pSer473-AKT/AKT (% control). In outline:
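HeLa cells treated with compounds at 40 μM for 9 hours, then lysed and analysed by Western blot with chemiluminescent detection. Phospho-Akt Ser473 signal normalised to total Akt and expressed as percent of DMSO vehicle control.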

The subject of another assay is LC3-II. The experiment in a line: LC3-II formation as indicator of autophagy in HeLa cells (Western blot). It is filed as cell-based, human. Conditions: 9 hours; for activity at 40 µM: Homo sapiens, read-out: LC3-II (% control). In outline: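 HeLa cells were treated with compounds at 40 μM for 9 h, then lysed in RIPA buffer and analysed by Western blot with chemiluminescent detection. LC3-II signal normalized to pan-Akt and expressed as percent of the DMSO vehicle control.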
On the technique in general: Immunoblotting shows a protein as a band on a membrane.

The target of a further assay is T2, mTORC1 (Homo sapiens, UniProt P42345).
T2 construct: the following experiments were conducted in HeLa cells; endogenous in cells; host or cells: HeLa
The experiment in a line: mTORC1 inhibitory activity in HeLa cells (p70S6K Thr389 phosphorylation, Western blot). Format: cell-based. The conditions noted are these: 9 hours; for remaining activity at 40 µM: read-out: pThr389-S6K/S6K (% control). In outline:
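HeLa cells treated with compounds at 40 μM for 9 hours, lysed in RIPA, and equal protein analysed by Western blot. Phospho-p70S6K (Thr389) signal normalized to total p70S6K and expressed as percent of DMSO vehicle control.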

A value given as a limit tells only on which side of the number the result lay.

With `O=C1c2cc(F)c(N3CCOCC3)cc2COc2cc3c(cc21)OCO3` [HN2210, 8-(morpholino)-9-fluoro[2]benzoxepino[3,4-f]-1,3-benzodioxol-11(6H)-one], in assay [1], the “reduction of 6E10 signals in the dentate gyrus compared to the 5×FAD-DMSO group” value (“reduction of 6E10 signals” below) turned out to be 53% and the “reduction of thioflavin-S signals in the dentate gyrus compared to the 5×FAD-DMSO group” value (“reduction of thioflavin-S signals” for short) was 38%. For the same compound, on mTORC2, the “selective inhibition of mTORC2” value is on record as “selectively inhibit mTORC2” and the remaining activity at 40 µM came to 43%. Besides, in the assay on LC3-II (40 μM), the “increase in LC3-II” value stood at 22%. In the assay with LC3-II, the activity at 40 µM was 108%. Moreover, the “effect on S6K Thr389 phosphorylation” value at mTORC1 (40 μM) was “no effect”. Besides, on mTORC1, the remaining activity at 40 µM is 107%.

On to `O=C1c2cc(F)c(NCc3ccccc3)cc2COc2cc3c(cc21)OCO3` [HN2213, 8-(benzylamino)-9-fluoro[2]benzoxepino[3,4-f]-1,3-benzodioxol-11(6H)-one], for which, in assay [1], the “reduction of 6E10 signals” value worked out at 29% and the “reduction of thioflavin-S signals” value is recorded as 28%. Moreover, on mTORC2, the “selective inhibition of mTORC2” value is “selectively inhibit mTORC2” and the remaining activity at 40 µM worked out at 51%. Moreover, the “decrease in LC3-II” value in the assay with LC3-II (40 μM) is 33%. Also, in the assay with LC3-II, the activity at 40 µM turned out to be 67%. The “increase in S6K Thr389 phosphorylation” value on mTORC1 (40 μM) worked out at 14%. In addition, the remaining activity at 40 µM at mTORC1 amounted to 114%.

Take `O=C1c2cc(F)c(NC3CCCC3)cc2COc2cc3c(cc21)OCO3` [HN2313, 8-(cyclopentylamino)-9-fluoro-[1,3]dioxolo[4′,5′:4,5]benzo[1,2-b]benzo[e]oxepin-11(6H)-one]: in assay [1], the “reduction of 6E10 signals” value is 38% and the “reduction of thioflavin-S signals” value turned out to be 35%. The remaining activity at 40 µM on mTORC2 was 80%. The inhibition at 40 µM on mTORC2 (HeLa, 9 h, read-out: reduction in Akt Ser473 phosphorylation compared to the control group) is over 20%. Also, the “increase in LC3-II” value with LC3-II (40 μM) was 62%. Besides, the activity at 40 µM in the assay on LC3-II is 162%. For the same compound, at mTORC1, the remaining activity at 40 µM was 54%.
